In ChEMBL document CHEMBL1201862, “PubChem BioAssay data set” (2004):
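These data come from cells grown in 96-well plates and exposed to compound for 48 hours at five concentrations. Here, GI50 denotes the concentration required for 50% inhibition of growth.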 Calls of active or inactive are those of the source. Cut-off read from the data, not from the text of the source: active = GI50 up to about 1.1 µM and inactive = higher.

Columns and labels:
Test in all cases: inhibition of tumour cell growth, NCI panel, 48 h
MOLT-4 = tested on: MOLT-4
HT-29 = tested on: HT-29
NCI-H522 = tested on: NCI-H522
UO-31 = tested on: UO-31
HL-60 = tested on: HL-60
UACC-62 = tested on: UACC-62
786-0 = tested on: 786-0
OVCAR-3 = tested on: OVCAR-3
M14 = tested on: M14
SF-295 = tested on: SF-295
SNB-75 = tested on: SNB-75
IGROV-1 = tested on: IGROV-1
CCRF-CEM = tested on: CCRF-CEM
SNB-19 = tested on: SNB-19
SF-268 = tested on: SF-268
NCI-H23 = tested on: NCI-H23
NCI/ADR-RES = tested on: NCI/ADR-RES
SK-MEL-28 = tested on: SK-MEL-28
SK-OV-3 = tested on: SK-OV-3

SMILES | GI50 (MOLT-4) | GI50 (HT-29) | GI50 (NCI-H522) | GI50 (UO-31) | GI50 (HL-60) | GI50 (UACC-62) | GI50 (786-0) | GI50 (OVCAR-3) | GI50 (M14) | GI50 (SF-295) | GI50 (SNB-75) | GI50 (IGROV-1) | GI50 (CCRF-CEM) | GI50 (SNB-19) | GI50 (SF-268) | GI50 (NCI-H23) | GI50 (NCI/ADR-RES) | GI50 (SK-MEL-28) | GI50 (SK-OV-3)
O=C(O)CCC(NC(=O)c1ccc(Nc2nc3cc(C(F)(F)F)ccc3nc2C(=O)O)cc1)C(=O)O (stereo unspecified) | > 100 µM (inactive) | > 100 µM (inactive) | > 100 µM (inactive) | > 100 µM (inactive) | > 100 µM (inactive) | > 100 µM (inactive) | > 100 µM (inactive) | > 100 µM (inactive) | > 100 µM (inactive) | > 100 µM (inactive) | > 100 µM (inactive) | > 100 µM (inactive) | > 100 µM (inactive) | > 100 µM (inactive) | > 100 µM (inactive) | > 100 µM (inactive) | > 100 µM (inactive) | > 100 µM (inactive) | –
Clc1ccc2c(c1)CC1C[N+]3=C(CCCCC3)C1=C2 (stereo unspecified) | > 100 µM (inactive) | 37.8 µM (inactive) | 38.8 µM (inactive) | > 100 µM (inactive) | > 100 µM (inactive) | > 100 µM (inactive) | > 100 µM (inactive) | 59 µM (inactive) | 57.3 µM (inactive) | 64.1 µM (inactive) | 0.349 µM (active) | 37.2 µM (inactive) | > 100 µM (inactive) | 51.8 µM (inactive) | 50.8 µM (inactive) | 37.4 µM (inactive) | > 100 µM (inactive) | > 100 µM (inactive) | > 100 µM (inactive)
CCOC(=O)c1nc2cc(C(F)(F)F)ccc2nc1Oc1ccc(F)cc1 | > 100 µM (inactive) | – | > 100 µM (inactive) | 61.5 µM (inactive) | 63.4 µM (inactive) | > 100 µM (inactive) | > 100 µM (inactive) | > 100 µM (inactive) | > 100 µM (inactive) | > 100 µM (inactive) | > 100 µM (inactive) | > 100 µM (inactive) | > 100 µM (inactive) | > 100 µM (inactive) | > 100 µM (inactive) | – | > 100 µM (inactive) | > 100 µM (inactive) | –
N#CC(=N)c1ncn(-c2ccccc2N)c1N | > 100 µM (inactive) | > 100 µM (inactive) | > 100 µM (inactive) | > 100 µM (inactive) | > 100 µM (inactive) | > 100 µM (inactive) | > 100 µM (inactive) | > 100 µM (inactive) | > 100 µM (inactive) | > 100 µM (inactive) | > 100 µM (inactive) | > 100 µM (inactive) | > 100 µM (inactive) | > 100 µM (inactive) | > 100 µM (inactive) | > 100 µM (inactive) | > 100 µM (inactive) | > 100 µM (inactive) | > 100 µM (inactive)
COc1ccc([C@H]2C=[N+]([O-])O[C@H](OC3CCCC3)[C@@H]2OC(C)=O)cc1OC | 32.6 µM (inactive) | 20.7 µM (inactive) | 5.66 µM (inactive) | 18.7 µM (inactive) | 18.5 µM (inactive) | 22.8 µM (inactive) | – | 26 µM (inactive) | 21.4 µM (inactive) | > 100 µM (inactive) | 28.4 µM (inactive) | 18.3 µM (inactive) | 0.098 µM (active) | > 100 µM (inactive) | 33.7 µM (inactive) | 25.6 µM (inactive) | 31.8 µM (inactive) | 20.8 µM (inactive) | > 100 µM (inactive)
CCOC(=O)c1csc(NC(=O)CCCC#N)n1 | > 100 µM (inactive) | > 100 µM (inactive) | – | > 100 µM (inactive) | > 100 µM (inactive) | > 100 µM (inactive) | – | > 100 µM (inactive) | > 100 µM (inactive) | > 100 µM (inactive) | > 100 µM (inactive) | – | > 100 µM (inactive) | > 100 µM (inactive) | – | > 100 µM (inactive) | > 100 µM (inactive) | > 100 µM (inactive) | > 100 µM (inactive)
Cc1ccc([N+](=O)[O-])cc1S(=O)(=O)Nc1ccc(C2=NNC(c3cccs3)C2)cc1 (stereo unspecified) | 13.7 µM (inactive) | 29.9 µM (inactive) | 24.7 µM (inactive) | 5.32 µM (inactive) | 0.0627 µM (active) | 14.5 µM (inactive) | 31.3 µM (inactive) | 12.6 µM (inactive) | 25.5 µM (inactive) | 6.67 µM (inactive) | 31.3 µM (inactive) | 58.9 µM (inactive) | 20.2 µM (inactive) | 28.8 µM (inactive) | 36.8 µM (inactive) | 22.2 µM (inactive) | 26.5 µM (inactive) | 48.5 µM (inactive) | 20.7 µM (inactive)
C1CCC2(CC1)O[C@@H]1[C@@H](O2)[C@@H](O[C@H]2O[C@@H]3COC4(CCCCC4)O[C@H]3[C@@H]3OC4(CCCCC4)O[C@@H]23)O[C@@H]2COC3(CCCCC3)O[C@@H]12 | 23.9 µM (inactive) | > 100 µM (inactive) | > 100 µM (inactive) | > 100 µM (inactive) | 11.4 µM (inactive) | > 100 µM (inactive) | > 100 µM (inactive) | > 100 µM (inactive) | > 100 µM (inactive) | > 100 µM (inactive) | > 100 µM (inactive) | > 100 µM (inactive) | > 100 µM (inactive) | > 100 µM (inactive) | > 100 µM (inactive) | > 100 µM (inactive) | > 100 µM (inactive) | > 100 µM (inactive) | > 100 µM (inactive)
Fc1c(F)c(F)c(CSc2nc3ccccc3[nH]2)c(F)c1F | > 100 µM (inactive) | > 100 µM (inactive) | > 100 µM (inactive) | > 100 µM (inactive) | > 100 µM (inactive) | > 100 µM (inactive) | – | > 100 µM (inactive) | > 100 µM (inactive) | > 100 µM (inactive) | > 100 µM (inactive) | > 100 µM (inactive) | > 100 µM (inactive) | > 100 µM (inactive) | > 100 µM (inactive) | > 100 µM (inactive) | > 100 µM (inactive) | > 100 µM (inactive) | > 100 µM (inactive)
c1ccc(/N=C2/SC3=Nc4cccc5cccc(c45)N3/C2=N/c2ccccc2)cc1 | 79.3 µM (inactive) | > 100 µM (inactive) | > 100 µM (inactive) | > 100 µM (inactive) | > 100 µM (inactive) | > 100 µM (inactive) | – | > 100 µM (inactive) | > 100 µM (inactive) | > 100 µM (inactive) | > 100 µM (inactive) | > 100 µM (inactive) | 54.1 µM (inactive) | > 100 µM (inactive) | – | > 100 µM (inactive) | > 100 µM (inactive) | > 100 µM (inactive) | > 100 µM (inactive)
COc1ccc2c(C)cc(N/N=C/c3sccc3C)nc2c1 | 13.5 µM (inactive) | 2.81 µM (inactive) | 10.2 µM (inactive) | 17.1 µM (inactive) | 46.8 µM (inactive) | 15.9 µM (inactive) | – | 2.99 µM (inactive) | 11.8 µM (inactive) | 14.7 µM (inactive) | 12.1 µM (inactive) | 5.82 µM (inactive) | 39.8 µM (inactive) | 21.7 µM (inactive) | 17.4 µM (inactive) | 14.7 µM (inactive) | 10 µM (inactive) | 14.8 µM (inactive) | 17.1 µM (inactive)
